Source: publication PMC9653173, “Trotabresib (CC-90010) in combination with adjuvant temozolomide or concomitant temozolomide plus radiotherapy in patients with newly diagnosed glioblastoma” (Neuro-Oncology Advances, 2022)

Key:
CCR1 mRNA = assay: Blood CCR1 mRNA pharmacodynamics; assay type: in vivo, human
Description: (§1) Plasma samples were collected during the first treatment cycle for investigation of trotabresib pharmacokinetics and pharmacodynamics. Plasma pharmacokinetic parameters assessed included peak plasma concentration (Cmax), time to peak plasma concentration (tmax), area under the plasma concentration–time curve (AUC), and terminal half-life (t½). Pharmacodynamic markers assessed included blood levels of CCR1 and HEXIM1 mRNA, which are established markers of BET inhibitor target engagement.[17],[22],[37],[38]

HEXIM1 mRNA = assay: Blood HEXIM1 mRNA pharmacodynamics; assay type: in vivo, human
Description: as §1

glioblastoma PDX models = assay: Tumor growth inhibition in glioblastoma patient-derived xenograft models; assay type: in vivo; conditions: Supplementary Figure S1
Description: Supplementary Figure 1. Trotabresib-mediated tumor growth inhibition in a glioblastoma patient-derived xenograft with and without TMZ. [picture] ^aTMZ given on days 7–9 and 22–24.

MGMT = assay: In vivo downregulation of MGMT; conditions: preclinical; Supplementary Figure S2
Description: Supplementary Figure 2. In vivo downregulation of MGMT (A) mRNA by trotabresib as a single agent and (B) protein by trotabresib in combination with TMZ.

[1] = set-up: method as in PMID 36455228; conditions: recurrent high-grade glioma, trotabresib 30 mg/day on days 1–4 before surgery; cited from earlier work

In the case of `Cn1cc(-c2cc(S(C)(=O)=O)ccc2OCC2CC2)c2ccccc2c1=O` [Trotabresib], the “Blood CCR1 mRNA expression, lower than at baseline” value (CCR1 mRNA; RP2D 30 mg, day 4, 2–4 h post-dose, adjuvant and concomitant settings) is reported as ≥ 50%, the “Time to return of CCR1 mRNA expression to baseline levels” value (CCR1 mRNA; RP2D 30 mg, post-dose in cycle 1) is reported as ≤ 168 h and the “Blood CCR1 mRNA modulation” value (CCR1 mRNA; trotabresib 15 mg, adjuvant or concomitant cohorts) is reported as “no decrease in CCR1 expression”. The “Duration of HEXIM1 mRNA elevation” value (HEXIM1 mRNA; RP2D 30 mg, cycle 1) was “remained above baseline until 168 h post-dose”, the “Increase in blood HEXIM1 mRNA expression” value (HEXIM1 mRNA; RP2D 30 mg, days 3 and 4, adjuvant and concomitant cohorts) was 2.5- to 4.0 fold and the “HEXIM1 modulation vs dose” value (HEXIM1 mRNA; both cohorts) was “increased with trotabresib dose”. The “Effect on antiproliferative effects of TMZ” value (glioblastoma PDX models; glioblastoma PDX models) was “enhances the antiproliferative effects of TMZ”, the “Antitumor activity as a single agent” value (glioblastoma PDX models; glioblastoma models) was “has antitumor activity in glioblastoma models as a single agent” and the MGMT expression (MGMT) was “downregulates MGMT expression in a dose-dependent manner”. For the same compound, the “Brain tumor tissue:plasma ratio” value [1] was 0.84.
